The nature of experiment [1]: Inhibition of yeast Alpha-glucosidase using p-nitro phenyl-alpha-D-glucopyranoside as a substrate measured after 20 mins by spectrophotocolorimetric analysis. On the set-up: species or system Saccharomyces cerevisiae.
The species entered for experiment [2] is Homo sapiens. Description: Inhibition of Type-1 alpha glucosidase (unknown origin).
Experiment [3] is filed under the species Homo sapiens. Description: Inhibition of Type-2 alpha glucosidase (unknown origin).
Experiment [4] has as its system Saccharomyces cerevisiae. Description: Mixed type inhibition of yeast Alpha- glucosidase assessed as decrease in Vmax using varying levels of p-NPG as substrate measured after 20 mins by reciprocal Lineweaver-Burk plot analysis.
The subject of experiment [5] is Saccharomyces cerevisiae. Kind of experiment: Mixed type inhibition of yeast Alpha- glucosidase assessed as increase in Km using varying levels of p-NPG as substrate measured after 20 mins by reciprocal Lineweaver-Burk plot analysis.

Calls of active or inactive are those of the source. The rule behind the calls is not given here.

`C/C=C(/C)C(=O)O[C@@H](c1cc(C(C)=O)ccc1O)[C@H]1OC1(C)C`: in experiment [1], the IC50 was 288 µM. On to `COc1cc2c(cc1C(C)OC)C=CC(C)(C)O2` (stereo not drawn), for which the IC50 in experiment [1] came out at 404 µM. This IC50 and that of the compound before are within 1.5-fold of each other.

As to `O=c1c(O)c(-c2ccc(O)c(O)c2)oc2cc(O[C@@H]3O[C@H](CO)[C@@H](O)[C@H](O)[C@H]3O)c(O)c(O)c12`, the IC50 in experiment [1] came out at 402 µM. On the same count and under the same terms, under `O=C(/C=C/c1ccc(O)c(O)c1)OC[C@H]1O[C@@H](Oc2cc3oc(-c4ccc(O)cc4)c(O)c(=O)c3c(O)c2O)[C@H](O)[C@@H](O)[C@@H]1O` stands 6.94 µM; under `COc1cc2c(cc1C(C)O)C=CC(C)(C)O2` (stereo not drawn), 672 µM; under `COc1cc2c(cc1C(C)=O)C=CC(C)(C)O2` [ENCECALIN], 440 µM. With `C[C@H]1O[C@H](O[C@H]2[C@H](O)[C@@H](O)[C@@H](O[C@H]3[C@H](O)[C@@H](O)C(O)O[C@@H]3CO)O[C@@H]2CO)[C@H](O)[C@@H](O)[C@@H]1N[C@H]1C=C(CO)[C@@H](O)[C@H](O)[C@H]1O` (stereo partly drawn) [ACARBOSE], 279 µM corresponded to half-maximal inhibition in experiment [1] (IC50). The inhibition result in the experiment listed under Homo sapiens [2] and in the experiment listed under Homo sapiens [3] was “Active” each time.

With `CC(=O)c1ccc2c(c1)C=CC(C)(C)O2`, the IC50 in experiment [1] turned out to be 460 µM. Consider `O=C(/C=C/c1ccc(O)c(O)c1)OC[C@H]1O[C@@H](Oc2cc3oc(-c4ccc(O)c(O)c4)c(O)c(=O)c3c(O)c2O)[C@H](O)[C@@H](O)[C@@H]1O`, for which, in experiment [1], 0.79 µM corresponded to half-maximal inhibition (IC50). For the same compound, the Vmax in the experiment with Saccharomyces cerevisiae [4] was found to be 1.42 mM/min. The Michaelis constant (Km) in the experiment with Saccharomyces cerevisiae [5] came out at 610 µM.

Source of the values: ChEMBL document CHEMBL4825667, “α-Glucosidase Inhibitors from Ageratina grandifolia” (J Nat Prod, 2021).
